According to US8221975B2, “Method for detection of microorganism” (Morinaga Milk Industry Co., Ltd., priority 2007, dated 2012):
Where “and” joins values, the source holds several entries; their conditions need not be identical. Equal entries are not always repeated.

Columns and labels:
Format in all cases: cell-based
[1] = system: Listeria monocytogenes JCM 2873; experiment: hlyA-PCR of EMA-treated Listeria (live and injured cells), band intensity of final amplified product on agarose gel; conditions: for bands of hlyA gene amplified products (electrophoresis, FIG. 1): multi-step treatment (EMA 100 μg/ml-incubation-EMA 25 or 10 μg/ml); for bands estimated as hlyA gene amplified products (electrophoresis, FIG. 1): single-step treatment, live cells and injured cells
[2] = system: Enterobacter sakazakii ATCC 6538P; experiment: ompA-PCR (469 bp) of EMA-treated Enterobacter sakazakii, band intensity of final amplified product; conditions: multi-step treatment (EMA 10 μg/ml-incubation-EMA 10 μg/ml)
Description: (§1) A Gram-negative bacterium, Enterobacter sakazakii (Enterobacter sakazakii ATCC […]; hereinafter, abbreviated as “sakazakii” in some cases), was cultured in brain-heart infusion (BHI) broth at 37° C., and 5 ml of the culture medium in the logarithmic growth phase was centrifuged at 8,000×g for 15 minutes at 4° C., followed by removal of the supernatant. 5 ml of physiological saline was added to the bacterial cells, and the whole was vigorously stirred and diluted 10-fold. Thus, a live cell suspension was prepared. […] The live cell suspension (1 ml) was placed in a 1.5-ml microtube, and the microtube was immersed in boiling water for 2 minutes and immediately cooled with ice water, to thereby prepare a injured cell suspension. The cells in the suspension probably include small numbers of live cells and dead cells but include mainly injured cells. Therefore, the cells are simply referred to as “injured cells”. Note that the method of the present invention is originally intended to detect live cells, and microorganism cells distinguished from live cells may be injured cells or dead cells. Ethidium monoazide (EMA) was added to the live cell suspension and injured cell suspension of sakazakii prepared above at a final concentration of 0, 10, 25, or 100 μg/ml, and the suspensions were allowed to stand under shading at 4° C. for 10 minutes. The suspensions were placed on ice and irradiated for 5 minutes with a 500-W visible light (FLOOD PRF: 100 […] ELECTRIC CO., LTD., wavelength: 500 to 700 nm) at a distance of 20 cm from the suspensions. Then, the suspensions were centrifuged at 15,000×g for 10 minutes at 4° C., and the supernatants were removed. An equal volume of physiological saline was added thereto, and the suspensions were stirred and centrifuged while cooling at 15,000×g for 10 minutes at 4° C., followed by removal of the supernatants. An equal volume of brain-heart infusion (BHI) broth was added thereto, and the suspensions were incubated at 37° C. for 2 hours. In the first EMA treatment, EMA was not added again to the live cell and injured cell suspensions having an EMA concentration of 0, while EMA was added again at a final concentration of 10 μg/ml to the live cell and injured cell suspensions having an EMA concentration of 10, 25, or 100 μg/ml. The suspensions were allowed to stand under shading at 4° C. for 10 minutes, placed on ice, and irradiated for 5 minutes with a 500-W visible light at a distance of 20 cm from the suspensions. Ethidium monoazide (EMA) was added to the live cell and injured cell suspensions of sakazakii prepared in the section “1.” at a final concentration of 0, 10, 25 or 100 μg/ml, and the suspensions were allowed to stand under shading at 4° C. for 10 minutes, placed on ice, and irradiated for 5 minutes with a 500-W visible light (FLOOD PRF: […] ELECTRIC CO., LTD., wavelength: 500 to 700 nm) at a distance of 20 cm from the suspensions. Microtubes including one of the live cell and injured cell suspensions of sakazakii treated in the sections 2-1) and 2-2) above were centrifuged at 15,000×g for 10 minutes at 4° C. The supernatants were removed, and 1 ml of physiological saline was added thereto. The resultant suspensions were stirred vigorously and centrifuged while cooling in the same way as above (washing treatment). One more washing treatment was performed in the same way, and the same amount of sterile water as the initial amount was added to the pellets, followed by vigorous stirring. PCR Master Mix (total volume: 25.25 μl) was prepared using Direct Buffer Mix (G&g SCIENCE CO., LTD., Yokohama, Kanagawa) capable of sequentially and automatically performing elution of chromosomal DNA from a bacterium and PCR reactions. […]

[3] = system: Enterobacter sakazakii ATCC 6538P; experiment: ompA real-time PCR (469 bp) of EMA-treated Enterobacter sakazakii, Ct value
[4] = system: Enterobacter sakazakii ATCC 6538P; experiment: MMS-PCR of EMA-treated Enterobacter sakazakii, band intensity of final amplified product; conditions: for bands of MMS gene amplified products (electrophoresis, FIG. 3): multi-step treatment (EMA 10 μg/ml-incubation-EMA 10 μg/ml)
Description: as §1

[5] = system: Salmonella enteritidis IIP 604; experiment: invA-PCR (378 bp) of EMA-treated Salmonella, band intensity of final amplified product; conditions: for bands of invA gene amplified products (electrophoresis, FIG. 4): multi-step treatment (EMA 10 μg/ml-incubation-EMA 10 μg/ml)
[6] = system: Salmonella enteritidis IIP 604; experiment: invA real-time PCR (378 bp) of EMA-treated Salmonella, Ct value
[7] = single-step EMA 10 μg/ml, Injured cell
[8] = single-step EMA 10 μg/ml, Live cell
[9] = single-step EMA 25 μg/ml, Injured cell
[10] = single-step EMA 25 μg/ml, Live cell
[11] = single-step EMA 100 μg/ml, Injured cell
[12] = single-step EMA 100 μg/ml, Live cell
[13] = two-step EMA 10/10 μg/ml, Injured cell
[14] = two-step EMA 10/10 μg/ml, Live cell
[15] = two-step EMA 25/10 μg/ml, Injured cell
[16] = two-step EMA 25/10 μg/ml, Live cell
[17] = two-step EMA 100/10 μg/ml, Injured cell
[18] = two-step EMA 100/10 μg/ml, Live cell
[19] = multi-step: EMA 10 μg/ml + Incubation (37° C., 2 hr) + EMA 10 μg/ml, Injured cell
[20] = multi-step: EMA 10 μg/ml + Incubation (37° C., 2 hr) + EMA 10 μg/ml, Live cell

CC[n+]1c(-c2ccccc2)c2cc(N=[N+]=[N-])ccc2c2ccc(N)cc21 [EMA, ethidium monoazide] was tested, and the “bands of hlyA gene amplified products (electrophoresis, FIG. 1)” value ([1]; injured cells) was “few or no bands were detected”, the “bands of hlyA gene amplified products (electrophoresis, FIG. 1)” value ([1]; live cells) was “bands were clearly detected” and the “Band Intensity” value ([1]; multi-step: EMA 100 μg/ml + Incubation (30° C., 2 hr) + EMA 10 μg/ml, Injured cell) was 0.094. For the same molecule, the “Band Intensity” value ([1]; multi-step: EMA 100 μg/ml + Incubation (30° C., 2 hr) + EMA 10 μg/ml, Live cell) was 1.420, the “Band Intensity” value ([1]; multi-step: EMA 100 μg/ml + Incubation (30° C., 2 hr) + EMA 25 μg/ml, Injured cell) was 0.024 and the “Band Intensity” value ([1]; multi-step: EMA 100 μg/ml + Incubation (30° C., 2 hr) + EMA 25 μg/ml, Live cell) was 1.135. For the same molecule, the “Band Intensity” value [1, 7] was 1.539, the “Band Intensity” value [1, 8] was 1.141 and the “Band Intensity” value [1, 9] was 0.418. The “Band Intensity” value [1, 10] was 0.479, the “bands estimated as hlyA gene amplified products (electrophoresis, FIG. 1)” value ([1]; EMA 10 μg/ml) was “detected in both the live cells and injured cells” and the “bands estimated as hlyA gene amplified products (electrophoresis, FIG. 1)” value ([1]; EMA 25 μg/ml) was “almost disappeared in both the live cells and injured cells”. The “bands of ompA gene amplified products (electrophoresis, FIG. 2)” value ([2]; injured cells) was “no band was detected”, the “bands of ompA gene amplified products (electrophoresis, FIG. 2)” value ([2]; live cells) was “bands were clearly detected” and the “Ct value (mean ± SD, N = 2)” value [3, 7] was 36.3, ND^c,d. The “number of times of positive reaction in two PCR assays (i/2)” value (from here on “number of times of positive reaction”) [3, 7] was “(1/2)”, the “Ct value (mean ± SD, N = 2)” value [3, 8] was 18.8 ± 0.3 and the “number of times of positive reaction” value [3, 8] was “(2/2)”. For the same molecule, the “Ct value (mean ± SD, N = 2)” value [3, 9] was “ND, ND”, the “number of times of positive reaction” value [3, 9] was “(0/2)” and the “Ct value (mean ± SD, N = 2)” value [3, 10] was 20.9±0.6. For the same molecule, the “number of times of positive reaction” value [3, 10] was “(2/2)”, the “Ct value (mean ± SD, N = 2)” value [3, 11] was 35.0, ND and the “number of times of positive reaction” value [3, 11] was “(1/2)”. The “Ct value (mean ± SD, N = 2)” value [3, 12] was 23.9 ± 0.9, the “number of times of positive reaction” value [3, 12] was “(2/2)” and the “Ct value (mean ± SD, N = 2)” value [3, 13] was “ND, ND”. For the same molecule, the “number of times of positive reaction” value [3, 13] was “(0/2)”, the “Ct value (mean ± SD, N = 2)” value [3, 14] was 15.9±0.4 and the “number of times of positive reaction” value [3, 14] was “(2/2)”. For the same molecule, the “Ct value (mean ± SD, N = 2)” value [3, 15] was “ND, ND”, the “number of times of positive reaction” value [3, 15] was “(0/2)” and the “Ct value (mean ± SD, N = 2)” value [3, 16] was 20.1 ± 1.6. The “number of times of positive reaction” value [3, 16] was “(2/2)”, the “Ct value (mean ± SD, N = 2)” value [3, 17] was 36.0, ND and the “number of times of positive reaction” value [3, 17] was “(1/2)”. For the same molecule, the “Ct value (mean ± SD, N = 2)” value [3, 18] was 23.6 ± 0.4, the “number of times of positive reaction” value [3, 18] was “(2/2)” and the “bands of MMS gene amplified products (electrophoresis, FIG. 3)” value ([4]; injured cells) was “no band was detected”. The “bands of MMS gene amplified products (electrophoresis, FIG. 3)” value ([4]; live cells) was “bands were clearly detected”, the Band Intensity [4, 19] was 0.000 and the Band Intensity [4, 20] was 0.997. The Band Intensity [4, 7] was 0.855, the Band Intensity [4, 8] was 0.845 and the “bands of invA gene amplified products (electrophoresis, FIG. 4)” value ([5]; injured cells) was “no band was detected”. The “bands of invA gene amplified products (electrophoresis, FIG. 4)” value ([5]; live cells) was “bands were clearly detected”, the Band Intensity [5, 19] was 0.000 and the Band Intensity [5, 20] was 0.742. For the same molecule, the Band Intensity [5, 7] was 1.218, the Band Intensity [5, 8] was 2.856 and the “Ct value (mean ± SD, N = 2)” value [6, 7] was 31.6 ± 4.7. The “number of times of positive reaction” value [6, 7] was “(2/2)”, the “Ct value (mean ± SD, N = 2)” value [6, 8] was 16.2 ± 0.4 and the “number of times of positive reaction” value [6, 8] was “(2/2)”. The “Ct value (mean ± SD, N = 2)” value [6, 9] was “ND, ND^c,d”, the “number of times of positive reaction” value [6, 9] was “(0/2)” and the “Ct value (mean ± SD, N = 2)” value [6, 10] was 18.23±0.3 and 18.2 ± 0.3. The “number of times of positive reaction” value [6, 10] was “(2/2)”, the “Ct value (mean ± SD, N = 2)” value [6, 11] was “ND, ND” and the “number of times of positive reaction” value [6, 11] was “(0/2)”. For the same molecule, the “Ct value (mean ± SD, N = 2)” value [6, 12] was 27.7±3.8 and 27.7 ± 3.6, the “number of times of positive reaction” value [6, 12] was “(2/2)” and the “Ct value (mean ± SD, N = 2)” value [6, 13] was “ND, ND”. The “number of times of positive reaction” value [6, 13] was “(0/2)”, the “Ct value (mean ± SD, N = 2)” value [6, 14] was 16.0±3.5 and the “number of times of positive reaction” value [6, 14] was “(2/2)”. For the same molecule, the “Ct value (mean ± SD, N = 2)” value [6, 15] was “ND, ND”, the “number of times of positive reaction” value [6, 15] was “(0/2)” and the “Ct value (mean ± SD, N = 2)” value [6, 16] was 18.9 ± 2.2. For the same molecule, the “number of times of positive reaction” value [6, 16] was “(2/2)”, the “Ct value (mean ± SD, N = 2)” value [6, 17] was “ND, ND” and the “number of times of positive reaction” value [6, 17] was “(0/2)”. The “Ct value (mean ± SD, N = 2)” value [6, 18] was 27.9 ± 3.0 and the “number of times of positive reaction” value [6, 18] was “(2/2)”.
